ChEMBL document CHEMBL3045781, “Sensitivity monitoring of powdery mildew pathogens to cyflufenamid and the evaluation of resistance risk” (J Pestic Sci, 2006)
Values after ≈ are worked out from the molar mass of the structure shown.

What was measured:
Podosphaera fusca [1] = assay: Antifungal activity against wild type Sphaerotheca cucurbitae SFS-1; assay type: functional
Podosphaera fusca [2] = assay: Antifungal activity against triflumizole-resistant Sphaerotheca cucurbitae SFTFR-1; assay type: functional
Podosphaera fusca [3] = assay: Antifungal activity against Sphaerotheca cucurbitae in compound treated cucumber leaves at 20 degC measured after 5 days by leaf disk assay; assay type: functional, organism-based
[4] = tested on: Blumeria graminis f. sp. tritici; assay: Antifungal activity against Blumeria graminis f. sp. tritici after 6.25 g/ha 16 applications of compound by selection pressure test; assay type: functional, organism-based
Podosphaera fusca [5] = assay: Antifungal activity against thiophanate-methyl-resistant Sphaerotheca cucurbitae SFTMR-1; assay type: functional
[6] = tested on: Blumeria graminis f. sp. tritici; assay: Antifungal activity against Blumeria graminis f. sp. tritici strains by leaf segment floating assay; assay type: functional, organism-based
[7] = tested on: Blumeria graminis f. sp. tritici; assay: Antifungal activity against Blumeria graminis f. sp. tritici after 6.25 g/ha 6 applications of compound in pot by selection pressure test (Control = 0.097 ppm); assay type: functional, organism-based
Podosphaera fusca [8] = assay: Antifungal activity against kresoxim-methyl-resistant Sphaerotheca cucurbitae SFKMR-1; assay type: functional
[9] = tested on: Blumeria graminis f. sp. tritici; assay: Antifungal activity against Blumeria graminis f. sp. tritici strains in compound treated wheat seedlings measured after 7 days by pot assay; assay type: functional, organism-based

SMILES	MIC (Podosphaera fusca [1]) [µg/mL]	MIC (Podosphaera fusca [2]) [µg/mL]	EC50 (Podosphaera fusca [3]) [ppm]	MIC (Podosphaera fusca [3]; Podosphaera fusca, 120 h) [µg/mL]	EC50 [4] [ppm]	MIC (Podosphaera fusca [5]) [µg/mL]	EC50 [6] [ppm]	EC50 [7] [ppm]	MIC (Podosphaera fusca [8]) [µg/mL]	EC50 [9] [ppm]	MIC ([9]; Blumeria graminis, 168 h) [µg/mL]
CCCOC/C(=N\c1ccc(Cl)cc1C(F)(F)F)n1ccnc1 [TRIFLUMIZOLE]	0.1 (≈ 0.289 µM)	5 (≈ 14.5 µM)									
O=C(Cc1ccccc1)N/C(=N\OCC1CC1)c1c(C(F)(F)F)ccc(F)c1F [CYFLUFENAMID]	0.8 (≈ 1.94 µM)	0.8 (≈ 1.94 µM)	0.0019	0.001 (≈ 0.00243 µM)	0.0008	0.8 (≈ 1.94 µM)	0.0011	0.007	0.8 (≈ 1.94 µM)	0.029	0.2 (≈ 0.485 µM)
COC(=O)NC(=S)Nc1ccccc1NC(=S)NC(=O)OC [THIOPHANATE METHYL]	1 (≈ 2.92 µM)					> 100					
CO/N=C(/C(=O)OC)c1ccccc1COc1ccccc1C [KRESOXIM-METHYL]	0.8 (≈ 2.55 µM)								> 100		
